Assays:
[1] = test system: DU-145; assay: NCI-60 anticancer screening (SRB); assay type: cell-based; details: Homo sapiens; DU-145, prostate cancer; one dose 10 μM; read-out: Growth Inhibition Percentage (GI %)
[2] = test system: SF-539; assay: NCI-60 anticancer screening (SRB); assay type: cell-based; details: Homo sapiens; SF-539, CNS cancer; one dose 10 μM; read-out: Growth Inhibition Percentage (GI %)
[3] = test system: SF-268; assay: NCI-60 anticancer screening (SRB); assay type: cell-based; details: Homo sapiens; SF-268, CNS cancer; one dose 10 μM; read-out: Growth Inhibition Percentage (GI %)
[4] = test system: CCRF-CEM; assay: NCI-60 anticancer screening (SRB); assay type: cell-based; details: Homo sapiens, leukemia, one dose 10 μM, read-out: Growth Inhibition Percentage (GI %)
[5] = test system: MCF7; assay: NCI-60 anticancer screening (SRB); assay type: cell-based; details: Homo sapiens; MCF7, breast cancer; one dose 10 μM; read-out: Growth Inhibition Percentage (GI %)
[6] = test system: SK-MEL-2; assay: NCI-60 anticancer screening (SRB); assay type: cell-based; details: Homo sapiens; SK-MEL-2, melanoma; one dose 10 μM; read-out: Growth Inhibition Percentage (GI %)
[7] = test system: TK-10; assay: NCI-60 anticancer screening (SRB); assay type: cell-based; details: Homo sapiens; TK-10, renal cancer; one dose 10 μM; read-out: Growth Inhibition Percentage (GI %)
[8] = test system: ACHN; assay: NCI-60 anticancer screening (SRB); assay type: cell-based; details: Homo sapiens, renal cancer, one dose 10 μM, read-out: Growth Inhibition Percentage (GI %)
[9] = test system: NCI-H522; assay: NCI-60 anticancer screening (SRB); assay type: cell-based; details: Homo sapiens; NCI-H522, NSC lung cancer; one dose 10 μM; read-out: Growth Inhibition Percentage (GI %)
[10] = test system: HCT-116; assay: NCI-60 anticancer screening (SRB); assay type: cell-based; details: Homo sapiens; HCT-116, colon cancer; one dose 10 μM; read-out: Growth Inhibition Percentage (GI %)
[11] = test system: RPMI-8226; assay: NCI-60 anticancer screening (SRB); assay type: cell-based; details: Homo sapiens; RPMI-8226, leukemia; one dose 10 μM; read-out: Growth Inhibition Percentage (GI %)
[12] = test system: COLO 205; assay: NCI-60 anticancer screening (SRB); assay type: cell-based; details: Homo sapiens; COLO 205, colon cancer; one dose 10 μM; read-out: Growth Inhibition Percentage (GI %)
[13] = test system: NCI-H322M; assay: NCI-60 anticancer screening (SRB); assay type: cell-based; details: Homo sapiens, NSC lung cancer, one dose 10 μM, read-out: Growth Inhibition Percentage (GI %)
[14] = test system: OVCAR-5; assay: NCI-60 anticancer screening (SRB); assay type: cell-based; details: Homo sapiens; OVCAR-5, ovarian cancer; one dose 10 μM; read-out: Growth Inhibition Percentage (GI %)
[15] = test system: MDA-MB-468; assay: NCI-60 anticancer screening (SRB); assay type: cell-based; details: Homo sapiens; MDA-MB-468, breast cancer; one dose 10 μM; read-out: Growth Inhibition Percentage (GI %)
[16] = test system: SNB-19; assay: NCI-60 anticancer screening (SRB); assay type: cell-based; details: Homo sapiens; SNB-19, CNS cancer; one dose 10 μM; read-out: Growth Inhibition Percentage (GI %)
[17] = test system: RXF 393; assay: NCI-60 anticancer screening (SRB); assay type: cell-based; details: Homo sapiens; RXF 393, renal cancer; one dose 10 μM; read-out: Growth Inhibition Percentage (GI %)
[18] = test system: HS 578T; assay: NCI-60 anticancer screening (SRB); assay type: cell-based; details: Homo sapiens; HS 578T, breast cancer; one dose 10 μM; read-out: Growth Inhibition Percentage (GI %)
[19] = test system: UO-31; assay: NCI-60 anticancer screening (SRB); assay type: cell-based; details: Homo sapiens; UO-31, renal cancer; one dose 10 μM; read-out: Growth Inhibition Percentage (GI %)
[20] = test system: BT-549; assay: NCI-60 anticancer screening (SRB); assay type: cell-based; details: Homo sapiens; BT-549, breast cancer; one dose 10 μM; read-out: Growth Inhibition Percentage (GI %)
[21] = test system: SN 12C; assay: NCI-60 anticancer screening (SRB); assay type: cell-based; details: Homo sapiens, SN12C; SN 12C, renal cancer; one dose 10 μM; read-out: Growth Inhibition Percentage (GI %)
[22] = test system: LOX IMVI; assay: NCI-60 anticancer screening (SRB); assay type: cell-based; details: Homo sapiens, melanoma, one dose 10 μM, read-out: Growth Inhibition Percentage (GI %)
[23] = test system: U251; assay: NCI-60 anticancer screening (SRB); assay type: cell-based; details: Homo sapiens, U-251; U251, CNS cancer; one dose 10 μM; read-out: Growth Inhibition Percentage (GI %)
[24] = target: EGFR^L858R (Homo sapiens, UniProt P00533, L858R); assay: biochemical
Sequence of EGFR^L858R (P00533 25-1210 L858R): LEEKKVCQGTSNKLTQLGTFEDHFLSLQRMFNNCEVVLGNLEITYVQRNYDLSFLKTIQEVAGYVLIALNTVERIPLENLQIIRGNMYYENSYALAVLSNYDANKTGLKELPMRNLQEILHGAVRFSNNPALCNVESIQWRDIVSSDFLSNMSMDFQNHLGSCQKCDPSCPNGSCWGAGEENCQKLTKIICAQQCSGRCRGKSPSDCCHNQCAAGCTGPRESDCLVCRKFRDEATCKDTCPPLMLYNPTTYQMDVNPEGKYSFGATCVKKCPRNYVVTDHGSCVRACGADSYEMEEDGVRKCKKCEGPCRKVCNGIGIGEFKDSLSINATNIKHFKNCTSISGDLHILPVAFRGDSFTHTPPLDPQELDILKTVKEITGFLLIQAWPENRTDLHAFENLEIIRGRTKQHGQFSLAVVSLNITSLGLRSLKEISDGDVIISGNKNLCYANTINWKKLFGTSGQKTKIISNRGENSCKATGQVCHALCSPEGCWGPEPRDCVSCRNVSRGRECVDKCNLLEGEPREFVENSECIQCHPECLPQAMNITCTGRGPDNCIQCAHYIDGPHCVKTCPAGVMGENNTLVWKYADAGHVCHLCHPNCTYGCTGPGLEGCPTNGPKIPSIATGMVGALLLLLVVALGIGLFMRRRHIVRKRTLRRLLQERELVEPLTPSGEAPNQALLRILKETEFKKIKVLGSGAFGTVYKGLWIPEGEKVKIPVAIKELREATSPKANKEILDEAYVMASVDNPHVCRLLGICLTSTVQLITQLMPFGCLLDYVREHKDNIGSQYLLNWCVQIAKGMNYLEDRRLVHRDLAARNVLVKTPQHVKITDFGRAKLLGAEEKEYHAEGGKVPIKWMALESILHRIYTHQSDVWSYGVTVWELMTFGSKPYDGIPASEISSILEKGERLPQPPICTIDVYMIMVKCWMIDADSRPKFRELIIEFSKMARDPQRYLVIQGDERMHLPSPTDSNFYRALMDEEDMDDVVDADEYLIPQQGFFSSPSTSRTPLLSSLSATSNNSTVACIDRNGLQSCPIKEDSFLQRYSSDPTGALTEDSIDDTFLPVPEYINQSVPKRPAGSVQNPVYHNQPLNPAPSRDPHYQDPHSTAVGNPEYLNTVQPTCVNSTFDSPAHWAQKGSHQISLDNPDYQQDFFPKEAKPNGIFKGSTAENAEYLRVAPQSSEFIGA

[25] = test system: HCC-2998; assay: NCI-60 anticancer screening (SRB); assay type: cell-based; details: Homo sapiens; HCC-2998, colon cancer; one dose 10 μM; read-out: Growth Inhibition Percentage (GI %)
[26] = target: EGFR^WT (Homo sapiens, UniProt P00533); assay: EGFR kinase inhibitory assay (HTRF)
Sequence of EGFR^WT (P00533 25-1210): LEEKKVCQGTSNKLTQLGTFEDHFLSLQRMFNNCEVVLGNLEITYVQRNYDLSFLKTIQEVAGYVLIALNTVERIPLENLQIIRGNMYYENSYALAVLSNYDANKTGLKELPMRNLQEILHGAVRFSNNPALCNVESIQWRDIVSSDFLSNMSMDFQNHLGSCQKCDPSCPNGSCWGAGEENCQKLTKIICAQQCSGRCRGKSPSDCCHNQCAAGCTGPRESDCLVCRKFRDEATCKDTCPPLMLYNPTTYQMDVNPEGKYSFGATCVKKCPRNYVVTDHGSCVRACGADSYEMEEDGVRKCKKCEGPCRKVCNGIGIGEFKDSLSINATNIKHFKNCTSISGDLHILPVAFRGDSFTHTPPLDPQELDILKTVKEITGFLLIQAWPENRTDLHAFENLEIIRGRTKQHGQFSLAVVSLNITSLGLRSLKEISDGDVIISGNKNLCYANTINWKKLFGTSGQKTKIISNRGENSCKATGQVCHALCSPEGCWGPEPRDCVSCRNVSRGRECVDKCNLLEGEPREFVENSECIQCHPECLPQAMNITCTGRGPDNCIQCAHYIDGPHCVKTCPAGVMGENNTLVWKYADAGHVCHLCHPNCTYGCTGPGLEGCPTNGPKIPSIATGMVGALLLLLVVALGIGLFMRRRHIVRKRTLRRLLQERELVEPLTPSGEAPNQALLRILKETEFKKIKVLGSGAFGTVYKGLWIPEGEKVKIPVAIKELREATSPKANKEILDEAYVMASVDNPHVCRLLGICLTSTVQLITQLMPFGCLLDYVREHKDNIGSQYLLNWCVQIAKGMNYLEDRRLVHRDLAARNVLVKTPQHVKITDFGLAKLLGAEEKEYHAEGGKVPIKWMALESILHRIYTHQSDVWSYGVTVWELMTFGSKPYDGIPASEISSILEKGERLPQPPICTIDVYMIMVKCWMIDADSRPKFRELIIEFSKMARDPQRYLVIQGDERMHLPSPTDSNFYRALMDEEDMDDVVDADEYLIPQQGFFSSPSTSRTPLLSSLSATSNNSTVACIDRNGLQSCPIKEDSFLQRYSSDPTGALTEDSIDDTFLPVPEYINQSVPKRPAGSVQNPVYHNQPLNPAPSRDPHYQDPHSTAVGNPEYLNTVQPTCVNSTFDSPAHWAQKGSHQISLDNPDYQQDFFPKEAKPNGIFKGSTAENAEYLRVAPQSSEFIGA

[27] = test system: NCI-H226; assay: NCI-60 anticancer screening (SRB); assay type: cell-based; details: Homo sapiens; NCI-H226, NSC lung cancer; one dose 10 μM; read-out: Growth Inhibition Percentage (GI %)
[28] = test system: OVCAR-3; assay: NCI-60 anticancer screening (SRB); assay type: cell-based; details: Homo sapiens; OVCAR-3, ovarian cancer; one dose 10 μM; read-out: Growth Inhibition Percentage (GI %)
[29] = test system: SF-295; assay: NCI-60 anticancer screening (SRB); assay type: cell-based; details: Homo sapiens; SF-295, CNS cancer; one dose 10 μM; read-out: Growth Inhibition Percentage (GI %)
[30] = target: EGFR^T790M (Homo sapiens, UniProt P00533, T790M); assay: biochemical
Sequence of EGFR^T790M (P00533 25-1210 T790M): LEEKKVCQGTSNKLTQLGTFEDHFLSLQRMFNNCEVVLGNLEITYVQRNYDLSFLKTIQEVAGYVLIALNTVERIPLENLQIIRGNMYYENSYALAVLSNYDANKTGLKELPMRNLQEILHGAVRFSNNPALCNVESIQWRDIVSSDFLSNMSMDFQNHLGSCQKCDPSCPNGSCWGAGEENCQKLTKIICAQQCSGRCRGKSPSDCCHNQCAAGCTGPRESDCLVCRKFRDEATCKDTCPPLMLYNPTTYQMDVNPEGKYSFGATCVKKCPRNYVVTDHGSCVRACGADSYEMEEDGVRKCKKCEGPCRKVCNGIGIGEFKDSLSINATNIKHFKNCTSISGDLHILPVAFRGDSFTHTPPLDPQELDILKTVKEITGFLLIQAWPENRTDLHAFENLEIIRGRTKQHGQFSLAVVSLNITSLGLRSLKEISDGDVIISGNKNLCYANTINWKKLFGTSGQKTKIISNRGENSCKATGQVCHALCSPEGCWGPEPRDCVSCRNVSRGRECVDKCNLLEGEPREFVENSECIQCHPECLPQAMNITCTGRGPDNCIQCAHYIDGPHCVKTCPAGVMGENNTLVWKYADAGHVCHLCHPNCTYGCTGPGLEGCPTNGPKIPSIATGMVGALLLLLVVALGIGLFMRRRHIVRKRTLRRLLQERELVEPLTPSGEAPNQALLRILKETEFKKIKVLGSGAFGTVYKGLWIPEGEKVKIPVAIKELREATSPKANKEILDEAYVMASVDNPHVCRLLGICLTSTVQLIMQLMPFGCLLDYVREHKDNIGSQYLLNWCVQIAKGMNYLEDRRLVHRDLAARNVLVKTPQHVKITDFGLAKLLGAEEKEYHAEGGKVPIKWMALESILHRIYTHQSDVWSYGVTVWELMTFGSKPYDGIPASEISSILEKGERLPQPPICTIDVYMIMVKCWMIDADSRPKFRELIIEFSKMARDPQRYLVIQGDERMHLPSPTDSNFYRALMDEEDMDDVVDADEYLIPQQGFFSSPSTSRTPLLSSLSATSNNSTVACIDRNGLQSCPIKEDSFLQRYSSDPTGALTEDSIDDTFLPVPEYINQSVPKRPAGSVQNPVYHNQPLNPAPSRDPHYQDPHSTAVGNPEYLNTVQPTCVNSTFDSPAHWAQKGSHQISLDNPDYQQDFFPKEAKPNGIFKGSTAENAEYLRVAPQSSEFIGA

[31] = test system: NCI/ADR-RES; assay: NCI-60 anticancer screening (SRB); assay type: cell-based; details: Homo sapiens, ovarian cancer, one dose 10 μM, read-out: Growth Inhibition Percentage (GI %)

| SMILES | inhibition at 10 µM [1] | inhibition at 10 µM [2] | inhibition at 10 µM [3] | inhibition at 10 µM [4] | inhibition at 10 µM [5] | inhibition at 10 µM [6] | inhibition at 10 µM [7] | inhibition at 10 µM [8] | inhibition at 10 µM [9] | inhibition at 10 µM [10] | inhibition at 10 µM [11] | inhibition at 10 µM [12] | inhibition at 10 µM [13] | inhibition at 10 µM [14] | inhibition at 10 µM [15] | inhibition at 10 µM [16] | inhibition at 10 µM [17] | inhibition at 10 µM [18] | inhibition at 10 µM [19] | inhibition at 10 µM [20] | further results |
| --- | --- | --- | --- | --- | --- | --- | --- | --- | --- | --- | --- | --- | --- | --- | --- | --- | --- | --- | --- | --- | --- |
| CCOC(=O)C1=C(N)N(c2ccc(Cl)cc2)C2=C(C(=O)CC(C)(C)C2)C1c1ccccc1Cl (racemic) [6c, (±)-Ethyl 2-amino-4–(2-chlorophenyl)-1–(4-chlorophenyl)-7,7-dimethyl-5-oxo-1,4,5,6,7,8-hexahydroquinoline-3-carboxylate] | < 10% | < 10% | 23% | 40% | 58% | 24% | 43% | 40% | 63% | 66% | < 10% | 62% | < 10% | < 10% | 60% | 27% | < 10% | < 10% | 51% | 40% | inhibition at 10 µM [21]: 31%; inhibition at 10 µM [22]: 18%; inhibition at 10 µM [23]: 54%; IC50 [24]: 500 ± 4 nM; inhibition at 10 µM [25]: 24%; IC50 [26]: 277 ± 120 nM; inhibition at 10 µM [27]: 25%; inhibition at 10 µM [28]: 44%; inhibition at 10 µM [29]: 27%; IC50 [30]: 530 ± 4 nM; inhibition at 10 µM [31]: 24% |
| CCOC(=O)C1=C(N)N(c2ccccc2)C2=C(C(=O)CC(C)(C)C2)C1c1ccccc1Br (racemic) [6d, (±)-Ethyl 2-amino-4–(2-bromophenyl)-7,7-dimethyl-5-oxo-1-phenyl-1,4,5,6,7,8-hexahydroquinoline-3-carboxylate] | < 10% | < 10% | < 10% | 20% | 33% | 23% | < 10% | 11% | 23% | 21% | 35% | < 10% | < 10% | < 10% | 30% | < 10% | < 10% | < 10% | 14% | < 10% | inhibition at 10 µM [21]: < 10%; inhibition at 10 µM [22]: 12%; inhibition at 10 µM [23]: < 10%; IC50 [24]: 250 ± 5 nM; inhibition at 10 µM [25]: < 10%; IC50 [26]: 99 ± 20 nM; inhibition at 10 µM [27]: 11%; inhibition at 10 µM [28]: < 10%; inhibition at 10 µM [29]: < 10%; IC50 [30]: 410 ± 2 nM; inhibition at 10 µM [31]: < 10% |
| CCOC(=O)C1=C(N)N(c2ccc(C)cc2)C2=C(C(=O)CC(C)(C)C2)C1c1ccccc1Br (racemic) [6e, (±)-Ethyl 2-amino-4–(2-bromophenyl)-7,7-dimethyl-1–(4-methylphenyl)-5-oxo-1,4,5,6,7,8-hexahydroquinoline-3-carboxylate] | < 10% | < 10% | < 10% | 60% | 43% | 15% | < 10% | 14% | 32% | 60% | 64% | 37% | < 10% | < 10% | 23% | 13% | 14% | < 10% | 24% | < 10% | inhibition at 10 µM [21]: 15%; inhibition at 10 µM [22]: 11%; inhibition at 10 µM [23]: 19%; IC50 [24]: 370 ± 4 nM; inhibition at 10 µM [25]: 11%; IC50 [26]: 176 ± 70 nM; inhibition at 10 µM [27]: 15%; inhibition at 10 µM [28]: 15%; inhibition at 10 µM [29]: < 10%; IC50 [30]: 480 ± 3 nM; inhibition at 10 µM [31]: < 10% |
| CCOC(=O)C1=C(N)N(c2ccc(Cl)cc2)C2=C(C(=O)CC(C)(C)C2)C1c1ccccc1Br (racemic) [6f, (±)-Ethyl 2-amino-4–(2-bromophenyl)-1–(4-chlorophenyl)-7,7-dimethyl-5-oxo-1,4,5,6,7,8-hexahydroquinoline-3-carboxylate] | < 10% | < 10% | 17% | 33% | 47% | < 10% | 22% | 20% | 43% | 60% | < 10% | 45% | < 10% | < 10% | 53% | 11% | < 10% | < 10% | 40% | 27% | inhibition at 10 µM [21]: 13%; inhibition at 10 µM [22]: < 10%; inhibition at 10 µM [23]: 40%; IC50 [24]: 480 ± 3 nM; inhibition at 10 µM [25]: < 10%; IC50 [26]: 313 ± 120 nM; inhibition at 10 µM [27]: 14%; inhibition at 10 µM [28]: 31%; inhibition at 10 µM [29]: 18%; IC50 [30]: 590 ± 4 nM; inhibition at 10 µM [31]: 14% |
| CCOC(=O)C1=C(N)N(c2ccc(Cl)cc2)C2=C(C(=O)CC(C)(C)C2)C1c1ccccc1OC (racemic) [6i, (±)-Ethyl 2-amino-1–(4-chlorophenyl)-4–(2-methoxyphenyl)-7,7-dimethyl-5-oxo-1,4,5,6,7,8-hexahydroquinoline-3-carboxylate] | < 10% | 31% | 27% | 56% | 65% | 15% | < 10% | 38% | 43% | 65% | 73% | 50% | 15% | 15% | 39% | 28% | < 10% | 32% | 43% | 20% | inhibition at 10 µM [21]: 12%; inhibition at 10 µM [22]: 37%; inhibition at 10 µM [23]: 28%; IC50 [24]: 230 ± 1 nM; inhibition at 10 µM [25]: 38%; IC50 [26]: 157 ± 30 nM; inhibition at 10 µM [27]: 30%; inhibition at 10 µM [28]: 19%; inhibition at 10 µM [29]: 41%; IC50 [30]: 450 ± 3 nM; inhibition at 10 µM [31]: 40% |

— publication PMC10408569, “Recruitment of hexahydroquinoline as anticancer scaffold targeting inhibition of wild and mutants EGFR (EGFR^WT, EGFR^T790M, and EGFR^L858R)” (Journal of Enzyme Inhibition and Medicinal Chemistry, 2023)
